# Data: PubChem BioAssay (NCI)
#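 How tested: cells in 96-well plates exposed to compound for 48 hours at five concentrations. GI50 = concentration required for 50% inhibition of growth. TGI is the concentration that stops growth completely.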
# What was measured:
# Assay in all cases: NCI anticancer screen, dose series, 48 h
# [1] = tested on: 786-0 renal
# [2] = tested on: A498 renal
# [3] = tested on: A549 NSCLC
# [4] = tested on: ACHN renal
# [5] = tested on: CAKI-1 renal
# [6] = tested on: CCRF-CEM leukemia
# [7] = tested on: COLO 205 colon
# [8] = tested on: DU-145 prostate
# [9] = tested on: HCC-2998 colon
# [10] = tested on: HCT-116 colon
# [11] = tested on: HCT-15 colon
# [12] = tested on: HL-60(TB) leukemia
# [13] = tested on: HOP-62 NSCLC
# [14] = tested on: HS 578T breast
# [15] = tested on: HT29 colon
# [16] = tested on: IGROV1 ovarian
# [17] = tested on: K-562 leukemia
# [18] = tested on: KM12 colon
# [19] = tested on: LOX IMVI melanoma
# [20] = tested on: M14 melanoma
# [21] = tested on: MCF7 breast
# [22] = tested on: MDA-MB-231 breast
# [23] = tested on: MDA-MB-435
# [24] = tested on: MOLT-4 leukemia
# [25] = tested on: NCI-H226 lung
# [26] = tested on: NCI-H460 lung
# [27] = tested on: NCI-H522 lung
# [28] = tested on: NCI/ADR-RES ovarian
# [29] = tested on: OVCAR-3 ovarian
# [30] = tested on: OVCAR-4 ovarian
# [31] = tested on: OVCAR-5 ovarian
# [32] = tested on: OVCAR-8 ovarian
# [33] = tested on: PC-3 prostate
# [34] = tested on: RPMI-8226 leukemia
# [35] = tested on: RXF 393 renal
# [36] = tested on: SF-268 CNS
# [37] = tested on: SF-295 CNS
# [38] = tested on: SF-539 CNS
# [39] = tested on: SK-MEL-2 melanoma
# [40] = tested on: SK-MEL-28 melanoma
# [41] = tested on: SK-MEL-5 melanoma
# [42] = tested on: SK-OV-3 ovarian
# [43] = tested on: SN12C renal
# [44] = tested on: SNB-19 CNS
# [45] = tested on: SNB-75 CNS
# [46] = tested on: SR leukemia
# [47] = tested on: SW-620 colon
# [48] = tested on: U251 CNS
# [49] = tested on: UACC-257 melanoma
# [50] = tested on: UACC-62 melanoma
# [51] = tested on: UO-31 renal
# [52] = tested on: EKVX NSCLC
# [53] = tested on: HOP-92 NSCLC
# [54] = tested on: MALME-3M melanoma
# [55] = tested on: NCI-H23 lung
# [56] = tested on: T-47D breast
# [57] = tested on: TK-10 renal
smiles,measurement,setting,value
CC(C)(C)CC(C)(C)N(CSc1ccc(Cl)cc1)CSc1ccc(Cl)cc1,GI50,[1],1.56 µM
same,TGI,[1],4.01 µM
same,GI50,[2],0.207 µM
same,TGI,[2],0.863 µM
same,GI50,[3],0.452 µM
same,TGI,[3],7.7 µM
same,GI50,[4],2.56 µM
same,TGI,[4],11.4 µM
same,GI50,[5],1.78 µM
same,TGI,[5],4.55 µM
same,GI50,[6],0.366 µM
same,TGI,[6],3.38 µM
same,GI50,[7],2.15 µM
same,TGI,[7],4.19 µM
same,GI50,[8],2.25 µM
same,TGI,[8],11.2 µM
same,GI50,[9],4.62 µM
same,TGI,[9],16.4 µM
same,GI50,[10],1.42 µM
same,TGI,[10],5.85 µM
same,GI50,[11],2.29 µM
same,TGI,[11],11.5 µM
same,GI50,[12],1.75 µM
same,TGI,[12],3.96 µM
same,GI50,[13],0.57 µM
same,TGI,[13],10.8 µM
same,GI50,[14],1.72 µM
same,TGI,[14],> 100 µM
same,GI50,[15],2.83 µM
same,TGI,[15],9.18 µM
same,GI50,[16],0.745 µM
same,TGI,[16],2.7 µM
same,GI50,[17],3.49 µM
same,TGI,[17],26 µM
same,GI50,[18],0.486 µM
same,TGI,[18],4.55 µM
same,GI50,[19],0.337 µM
same,TGI,[19],1.06 µM
same,GI50,[20],1.92 µM
same,TGI,[20],5.91 µM
same,GI50,[21],2.2 µM
same,TGI,[21],10.2 µM
same,GI50,[22],0.486 µM
same,TGI,[22],2.2 µM
same,GI50,[23],1.45 µM
same,TGI,[23],4.05 µM
same,GI50,[24],0.841 µM
same,TGI,[24],5.09 µM
same,GI50,[25],0.836 µM
same,TGI,[25],2.67 µM
same,GI50,[26],0.829 µM
same,TGI,[26],8.38 µM
same,GI50,[27],1.65 µM
same,TGI,[27],3.08 µM
same,GI50,[28],2.42 µM
same,TGI,[28],> 100 µM
same,GI50,[29],1.78 µM
same,TGI,[29],4.25 µM
same,GI50,[30],1.74 µM
same,TGI,[30],9.88 µM
same,GI50,[31],2.19 µM
same,TGI,[31],6.26 µM
same,GI50,[32],1.74 µM
same,TGI,[32],7.57 µM
same,GI50,[33],0.472 µM
same,TGI,[33],4.3 µM
same,GI50,[34],2.17 µM
same,TGI,[34],5.11 µM
same,GI50,[35],1.87 µM
same,TGI,[35],7.06 µM
same,GI50,[36],0.803 µM
same,TGI,[36],4.39 µM
same,GI50,[37],0.316 µM
same,TGI,[37],1.33 µM
same,GI50,[38],1.23 µM
same,TGI,[38],2.56 µM
same,GI50,[39],2.54 µM
same,TGI,[39],6.28 µM
same,GI50,[40],1.99 µM
same,TGI,[40],5.74 µM
same,GI50,[41],1.29 µM
same,TGI,[41],2.61 µM
same,GI50,[42],2.68 µM
same,TGI,[42],12.4 µM
same,GI50,[43],0.506 µM
same,TGI,[43],3.45 µM
same,GI50,[44],2.14 µM
same,TGI,[44],19.9 µM
same,GI50,[45],1.13 µM
same,TGI,[45],5.68 µM
same,GI50,[46],1.23 µM
same,TGI,[46],5.51 µM
same,GI50,[47],2.02 µM
same,TGI,[47],4.93 µM
same,GI50,[48],0.415 µM
same,TGI,[48],2.09 µM
same,GI50,[49],1.85 µM
same,TGI,[49],6.18 µM
same,GI50,[50],1.72 µM
same,TGI,[50],3.77 µM
same,GI50,[51],0.489 µM
same,TGI,[51],1.93 µM
CC(NC1=NCCO1)c1cccs1 (stereo unspecified),TGI,[1],36.6 µM
same,TGI,[2],> 100 µM
same,TGI,[3],> 100 µM
same,TGI,[4],> 100 µM
same,TGI,[6],78.5 µM
same,TGI,[7],35.9 µM
same,TGI,[8],> 100 µM
same,TGI,[52],> 100 µM
same,TGI,[9],31.5 µM
same,TGI,[10],38.6 µM
same,TGI,[11],> 100 µM
same,TGI,[12],45.4 µM
same,TGI,[13],66.5 µM
same,TGI,[53],47 µM
same,TGI,[14],> 100 µM
same,TGI,[15],42.6 µM
same,TGI,[16],61.6 µM
same,TGI,[17],59.6 µM
same,TGI,[18],31.7 µM
same,TGI,[20],35.7 µM
same,TGI,[54],76.8 µM
same,TGI,[21],55.9 µM
same,TGI,[22],> 100 µM
same,TGI,[23],44.4 µM
same,TGI,[24],> 100 µM
same,TGI,[25],> 100 µM
same,TGI,[55],> 100 µM
same,TGI,[26],> 100 µM
same,TGI,[28],> 100 µM
same,TGI,[30],> 100 µM
same,TGI,[31],> 100 µM
same,TGI,[32],> 100 µM
same,TGI,[34],> 100 µM
same,TGI,[36],69.9 µM
same,TGI,[37],31 µM
same,TGI,[40],53.9 µM
same,TGI,[41],75.1 µM
same,TGI,[42],> 100 µM
same,TGI,[43],> 100 µM
same,TGI,[44],55.9 µM
same,TGI,[45],> 100 µM
same,TGI,[46],> 100 µM
same,TGI,[47],> 100 µM
same,TGI,[56],> 100 µM
same,TGI,[57],> 100 µM
same,TGI,[48],39.6 µM
same,TGI,[49],37.9 µM
same,TGI,[50],37.3 µM
same,TGI,[51],92.8 µM
